Measured values from publication PMC4076210, “Discovery of Novel AKT Inhibitors with Enhanced Anti-Tumor Effects in Combination with the MEK Inhibitor” (PLoS ONE, 2014).

System: solid tumor cell lines
Assay: 3-day proliferation assay (CellTiter-Glo)
Format: cell-based, human
Details: for IC50: Homo sapiens
Description: Various tumor cell lines were obtained from different sources including; the American Type Cell Culture Collection, the Developmental Therapeutics Program, the National Cancer Institute, the German Resource Center for Biological Material and the European Collection of Animal Cell Cultures. Cell lines were typically grown in […] containing 10% FBS. Some cell lines were grown in media specified by the vendor. A 3-day proliferation assay using CellTiter-Glo (CTG, Promega) was performed to measure the growth inhibition by the compounds at 0–30 µM. Cell growth was determined relative to untreated (DMSO) controls. EC50's were calculated from inhibition curves using a 4- or 6-parameter fitting algorithm in the Assay Client application.

Compound: Cn1ncc(Cl)c1-c1cc(C(=O)N[C@H](CN)Cc2ccc(F)c(F)c2)oc1Cl [GSK2141795]
- solid tumor cell lines with EC50<1 µM (178 cell lines, 3 days, CTG): 36%
- IC50 (22Rv1, 22Rv1, Prostate): 244 nM
- IC50 (647-V, 647V, Bladder): 7560 nM
- IC50 (786-0, 786-O, Kidney): 577 nM
- IC50 (A 172, A172, Brain): 5700 nM
- IC50 (A204, A204, Sarcoma): 1060 nM
- IC50 (A549, A549, Lung): 1540 nM
- IC50 (A673, A673, Sarcoma): 3400 nM
- IC50 (A2780, A2780, Ovary): 2300 nM
- IC50 (A-375, A375, Skin): 13800 nM
- IC50 (A-427, A427, Lung): 1960 nM
- IC50 (ACHN, Kidney): 1480 nM
- IC50 (AGS, Stomach): 491 nM
- IC50 (BE(2)-C, BE2C, Neuroblastoma): 664 nM
- IC50 (BFTC-905, BFTC905, Bladder): 1380 nM
- IC50 (BT-20, BT20, Breast): 79 nM
- IC50 (BXPC-3, BXPC3, Pancreas): 17200 nM
- IC50 (C3A, Liver): 966 nM
- IC50 (C32TG, Skin): 537 nM
- IC50 (C-33-A, C-33A, Cervix): 238 nM
- IC50 (C-41, Cervix): 15500 nM
- IC50 (CAL-27, CAL27, Head & Neck): 6590 nM
- IC50 (CAL-62, CAL62, Thyroid): 8050 nM
- IC50 (CCF-STTG1, CCFSTTG1, Brain): 164 nM
- IC50 (CGTH-W-1, CGTHW1, Thyroid): 2100 nM
- IC50 (CHL-1, CHL1, Skin): 3040 nM
- IC50 (CHP-212, CHP212, Neuroblastoma): 595 nM
- IC50 (COLO 205, COLO205, Colon): 3680 nM
- IC50 (COLO 320DM, COLO320DM, Colon): 698 nM
- IC50 (COLO 704, COLO704, Ovary): 104 nM
- IC50 (COR-L23, CORL23, Lung): 5510 nM
- IC50 (Calu-3, CALU3, Lung): 850 nM
- IC50 (Calu-6, CALU6, Lung): 3720 nM
- IC50 (Caov-3, CAOV3, Ovary): 4230 nM
- IC50 (Capan-2, Capan2, Pancreas): 4230 nM
- IC50 (DBTRG-05MG, DBTRG05MG, Brain): 3690 nM
- IC50 (DKMG, Brain): 946 nM
- IC50 (DLD-1, DLD1, Colon): 5920 nM
- IC50 (DU-145, DU145, Prostate): 3460 nM
- IC50 (DU-4475, DU4475, Breast): 1760 nM
- IC50 (DoTc2-4510, DoTc24510, Cervix): 1380 nM
- IC50 (EFM-19, EFM19, Breast): 49 nM
- IC50 (EKVX, Lung): 3910 nM
- IC50 (ES2, Ovary): 1750 nM
- IC50 (FaDu, Head & Neck): 9180 nM
- IC50 (G-401, G401, Head & Neck): 473 nM
- IC50 (GCT, Sarcoma): 3200 nM
- IC50 (H4, Brain): 1630 nM
- IC50 (HCC70, HCC70, Breast): 38 nM
- IC50 (HCC1954, HCC1954, Breast): 117 nM
- IC50 (HCC 2998, HCC2998, Colon): 1400 nM
- IC50 (HCT-116, HCT116, Colon): 3990 nM
- IC50 (HMCB, Skin): 2820 nM
- IC50 (HN5, Head & Neck): 1990 nM
- IC50 (HOS, Sarcoma): 1180 nM
- IC50 (HPAF-II, HPAFII, Pancreas): 4330 nM
- IC50 (HT3, Cervix): 1450 nM
- IC50 (HT-29, HT29, Colon): 1040 nM
- IC50 (HT-1080, HT1080, Sarcoma): 3460 nM
- IC50 (HUVEC, Normal Endothelial): 3180 nM
- IC50 (HeLa, Cervix): 5720 nM
- IC50 (Hep3B, Liver): 154 nM
- IC50 (Hs746T, Stomach): 1090 nM
- IC50 (IGROV-1, IGROV1, Ovary): 21 nM
- IC50 (J82, Bladder): 783 nM
- IC50 (KATO III, KATOIII, Stomach): 255 nM
- IC50 (KHOS-240S, KHOS240S, Sarcoma): 7400 nM
- IC50 (KM12, KM12, Colon): 3270 nM
- IC50 (KPL-1, KPL1, Breast): 1390 nM
- IC50 (KYSE-30, KYSE30, Oesophagus): 3210 nM
- IC50 (LNCaP, Prostate): 57 nM
- IC50 (LS174T, Colon): 1360 nM
- IC50 (LS-1034, LS1034, Colon): 1640 nM
- IC50 (M14, Skin): 1880 nM
- IC50 (MC-IXC, MCIXC, Neuroblastoma): 282 nM
- IC50 (MCF7, MCF7, Breast): 139 nM
- IC50 (MCF-10A, MCF10A, Normal Breast): 528 nM
- IC50 (MDA-MB-175-VII, MDAMB175-VII, Breast): 86 nM
- IC50 (MDA-MB-231, MDAMB231, Breast): 7620 nM
- IC50 (MDA-MB-453, MDAMB453, Breast): 474 nM
- IC50 (MDA-MB-468, MDAMB468, Breast): 369 nM
- IC50 (MES-SA, MESSA, Sarcoma): 342 nM
- IC50 (MIA PaCa-2, MiaPaCa, Pancreas): 871 nM
- IC50 (NCI-H69, NCIH69, Lung): 648 nM
- IC50 (NCI-H82, NCIH82, Lung): 15100 nM
- IC50 (NCI-H146, NCIH146, Lung): 7770 nM
- IC50 (NCI-H157, NCIH157, Lung): 1340 nM
- IC50 (NCI-H187, NCIH187, Lung): 115 nM
- IC50 (NCI-H209, NCI-H209, Lung): 853 nM
- IC50 (NCI-H226, NCIH226, Lung): 2760 nM
- IC50 (NCI-H292, NCIH292, Lung): 2870 nM
- IC50 (NCI-H322, NCIH322, Lung): 4710 nM
- IC50 (NCI-H358, NCI-H358, Lung): 635 nM
- IC50 (NCI-H446, NCIH446, Lung): 256 nM
- IC50 (NCI-H460, NCIH460, Lung): 1940 nM
- IC50 (NCI-H508, NCIH508, Lung): 159 nM
- IC50 (NCI-H520, NCIH520, Lung): 200 nM
- IC50 (NCI-H630, NCIH630, Lung): 3080 nM
- IC50 (NCI-H661, NCIH661, Lung): 3300 nM
- IC50 (NCI-H716, NCIH716, Colon): 1640 nM
- IC50 (NCI-H747, NCIH747, Lung): 474 nM
- IC50 (NCI-H1563, NCIH1563, Lung): 140 nM
- IC50 (NCI-H1792, NCIH1792, Lung): 2840 nM
- IC50 (NCI-H2030, NCIH2030, Lung): 3160 nM
- IC50 (NCI-H2052, NCIH2052, Lung): 1590 nM
- IC50 (NCI-H2081, NCIH2081, Lung): 507 nM
- IC50 (NCI-H2122, NCIH2122, Lung): 1910 nM
- IC50 (NCI-H2170, NCI-H2170, Lung): 3190 nM
- IC50 (NCI-H2228, NCIH2228, Lung): 409 nM
- IC50 (NCI-N87, NCIN87, Stomach): 568 nM
- IC50 (NCI/ADR-RES, NCIADRRES, Breast): 8010 nM
- IC50 (OE19, OE19, Oesophagus): 2280 nM
- IC50 (OE21, OE21, Oesophagus): 111 nM
- IC50 (OE33, OE33, Oesophagus): 4280 nM
- IC50 (OV-90, OV90, Ovary): 2080 nM
- IC50 (OVCAR-3, OVCAR3, Ovary): 3150 nM
- IC50 (OVCAR-4, OVCAR4, Ovary): 29300 nM
- IC50 (OVCAR-5, OVCAR5, Ovary): 5270 nM
- IC50 (PANC-1, Panc1, Pancreas): 2220 nM
- IC50 (PC3, Prostate): 1390 nM
- IC50 (PL45, PL45, Pancreas): 6100 nM
- IC50 (Panc 02.03, Panc02.03, Pancreas): 10700 nM
- IC50 (RD, Sarcoma): 6290 nM
- IC50 (RD-ES, RDES, Sarcoma): 808 nM
- IC50 (RKO, Colon): 676 nM
- IC50 (SAOS-2, SAOS2, Sarcoma): 2370 nM
- IC50 (SCC12, SCC12, Head & Neck): 1290 nM
- IC50 (SCC-9, SCC9, Head & Neck): 2390 nM
- IC50 (SCC-13, SCC-13, Head & Neck): 23700 nM
- IC50 (SCC-15, SCC15, Head & Neck): 1980 nM
- IC50 (SCC-25, SCC-25, Head & Neck): 2480 nM
- IC50 (SCLC3, Lung): 54 nM
- IC50 (SF-295, SF295, Brain): 373 nM
- IC50 (SF-539, SF539, Brain): 388 nM
- IC50 (SH4, Skin): 5520 nM
- IC50 (SHP77, SHP77, Lung): 3100 nM
- IC50 (SJRH30, SJRH30, Sarcoma): 284 nM
- IC50 (SK-BR-3, SKBR3, Breast): 96 nM
- IC50 (SK-LMS-1, SKLMS1, Sarcoma): 5870 nM
- IC50 (SK-MEL-1, SKMEL1, Skin): 2500 nM
- IC50 (SK-MEL-28, SKMEL28, Skin): 1610 nM
- IC50 (SK-MES-1, SKMES-1, Lung): 2180 nM
- IC50 (SK-N-AS, SKNAS, Neuroblastoma): 3400 nM
- IC50 (SK-OV-3, SKOV3, Ovary): 435 nM
- IC50 (SK-UT-1, SKUT1, Sarcoma): 202 nM
- IC50 (SKNF1, Neuroblastoma): 239 nM
- IC50 (SN12C, Kidney): 11300 nM
- IC50 (SNB-75, SNB75, Brain): 449 nM
- IC50 (SNU1, SNU1, Stomach): 1420 nM
- IC50 (SNU-5, SNU5, Stomach): 7810 nM
- IC50 (SNU-16, SNU16, Stomach): 7200 nM
- IC50 (SNU-398, SNU398, Liver): 13400 nM
- IC50 (SNU-449, SNU449, Liver): 6050 nM
- IC50 (SW48, SW48, Colon): 328 nM
- IC50 (SW480, SW480, Colon): 10300 nM
- IC50 (SW579, SW579, Thyroid): 957 nM
- IC50 (SW684, SW684, Sarcoma): 336 nM
- IC50 (SW756, SW756, Cervix): 8290 nM
- IC50 (SW780, SW780, Bladder): 4960 nM
- IC50 (SW872, SW872, Sarcoma): 289 nM
- IC50 (SW900, SW900, Lung): 8220 nM
- IC50 (SW1088, SW1088, Brain): 532 nM
- IC50 (SW1417, SW1417, Colon): 1360 nM
- IC50 (SW1783, SW1783, Brain): 182 nM
- IC50 (SW1990, SW1990, Pancreas): 9150 nM
- IC50 (Skut1B, Sarcoma): 10 nM
- IC50 (T47D, T-47D, Breast): 63 nM
- IC50 (T84, Colon): 2240 nM
- IC50 (TE 381.T, TE381T, Sarcoma): 834 nM
- IC50 (TK-10, TK10, Kidney): 3330 nM
- IC50 (U20S, Sarcoma): 23200 nM
- IC50 (U138-MG, U138MG, Brain): 1160 nM
- IC50 (U-87 MG, U87MG, Brain): 3320 nM
- IC50 (U-251, U251, Brain): 1220 nM
- IC50 (UACC-62, UACC62, Skin): 1230 nM
- IC50 (UACC-257, UACC257, Skin): 2990 nM
- IC50 (UMUC3, UMUC3, Bladder): 5830 nM
- IC50 (YAPC, Pancreas): 10300 nM
- IC50 (ZR-75-1, ZR75-1, Breast): 33 nM
